Here are results for 2 molecules from US20130029983A1, “AMINOTHIENOPYRIDAZINE INHIBITORS OF TAU ASSEMBLY” (priority 2009, published 2013).

The structures appear in SMILES notation. Where two headings read alike, the source gives them in different places.

One series has as its target T1, full-length tau (tau40) (Homo sapiens, UniProt P10636).
T1 construct: Full length tau (Tau40; amino acids 1-441); made in house
Kind of series: Tau40 fibrillization sedimentation assay. The class given is biochemical. Conditions: SDS-PAGE of soluble and insoluble fractions after centrifugation; for Emax: read-out: Tau40 Sed. Assay, maximal percent inhibition of tau40 fibrillization. As to the method:
The determination of compound-induced effects on the amount of tau that remains soluble upon centrifugation, and EM visualization of tau species following incubation with test compounds, were as previously described (Crowe, A., Ballatore, C., Hyde, E., Trojanowski, J. Q., and Lee, V. M. Y. (2007) Biochemical and Biophysical Research Communications 358, 1-6). […]

Series [1] is described as follows: Full PK analysis and oral administration, brain and plasma levels. The class given is in vivo, mice. The conditions noted are these: for half-life: 2 mg/kg, full PK analysis, FIG. 6A. Here is the method:
FIG. 6. (A) Brain and plasma level of F4 (CNDR-51362) after i.v. administration at 2 mg/Kg; (B) Brain and plasma level of F4 (CNDR-51362) after oral administration at 5 mg/Kg; (C) Brain and plasma level of F3 (CNDR-51349) after oral administration at 5 mg/Kg
Test compounds underwent preliminary evaluations of brain penetration, in which 5 mg/Kg of each compound was administered intraperitoneally (i.p.) to a group of three normal mice; drug levels in brain and plasma were determined at a single time-point (1 h) by LC-MS/MS using pre-validated calibration curves. […] However, both esters appeared to have relatively short half-lives in plasma, as indicated by the limited amount of parent drug detected after 1 h from administration of the compounds. […] CNDR-51362 was selected for full PK analysis in which brain and plasma drug levels were determined at six time points (i.e., 30 min, 1 h, 2 h, 4 h, 8 h, and 16 h). The results from this experiment, illustrated in FIG. 6A, confirmed that the total B/P exposure ratio over 16 h is 1.6. […] Finally, in order to investigate the potential for ATPZ congeners to be orally administered, we evaluated brain and plasma level of CNDR-51362 and CNDR-51349 after oral administration of 5 mg/Kg.
Brain tissue was homogenized in 10 mM ammonium acetate, pH 5.7 (1:2; w/v) using a handheld sonic homogenizer. Plasma was obtained from blood that was collected into a 1.5 mL tube containing 0.5M EDTA solution and subjected to centrifugation for 10 min. at 4500 g at 4° C. Aliquots (50 μL) of brain homogenate or plasma were mixed with 0.2 mL of acetonitrile, centrifuged at 15,000 g, and the resulting supernatants were used for subsequent LC-MS/MS analysis. The LC-MS/MS system was comprised of an Aquity HPLC and a TQ MS that was controlled using MassLynx software (Waters Corporation, Milford, Mass., USA). Compounds were detected using multiple reaction monitoring (MRM) of their specific collision-induced ion transitions. Samples (5 μL) were separated on an Aquity BEH C18 column (1.7 μm, 2.1×50 mm) at 35° C. Operation was in positive electrospray ionization mode, with mobile phase A of 0.1% (v/v) formic acid, and B of either acetonitrile or methanol with 0.1% (v/v) formic acid at a flow rate of 0.6 mL/min using a gradient from 5% to 95% B over two min., followed by wash and re-equilibration steps. The MS was operated with a desolvation temperature of 450° C. and a source temperature of 150° C. Desolvation and source nitrogen gas flows were 900 L/hr and 50 L/hr, respectively. Source and MS/MS voltages were optimized for each compound using the MassLynx auto tune utility. Standard curves were generated for each compound from brain homogenate and plasma samples that had compound added at 4, 40, 400 and 4000 ng/mL and extracted as above. Peak areas were plotted against concentration and a 1/x weighted linear regression curve was used to quantify the tissue-derived samples using the average peak area from triplicate injections.

Another series has as its target T2, K18PL tau (Homo sapiens, UniProt P10636, P618L).
T2 construct: (K18PL; amino acids 244-369); made in house
Kind of series: K18PL tau centrifugation (sedimentation) assay, SDS-PAGE densitometry. It counts as biochemical. The conditions noted are these: for Emax: SDS-PAGE of soluble and insoluble fractions after centrifugation, read-out: K18PL Sed. Assay, maximal percent inhibition of K18PL fibrillization. In short, it runs like this: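 Heparin-induced fibrillization of K18PL tau in sodium acetate buffer with test compound; mixtures were centrifuged and soluble versus insoluble K18PL quantified by SDS-PAGE densitometry. A repeat run centrifuged DMSO- and compound-treated mixtures for 30 min at time zero to remove pelletable material before incubation.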

A further series concerns the target T3, Aβ(1-42) (Homo sapiens, UniProt P05067).
T3 construct: Synthetic Aβ(1-42) peptide (rPeptide); purchased rPeptide
Nature of the series: Aβ(1-42) fibrillization assay (ThT). It counts as biochemical. Conditions: Table 3; highest tested concentration (80 μM); read-out: Aβ42 ThT Assay % Inhib.

T1 sequence (P10636 1-441 isoform P10636-8): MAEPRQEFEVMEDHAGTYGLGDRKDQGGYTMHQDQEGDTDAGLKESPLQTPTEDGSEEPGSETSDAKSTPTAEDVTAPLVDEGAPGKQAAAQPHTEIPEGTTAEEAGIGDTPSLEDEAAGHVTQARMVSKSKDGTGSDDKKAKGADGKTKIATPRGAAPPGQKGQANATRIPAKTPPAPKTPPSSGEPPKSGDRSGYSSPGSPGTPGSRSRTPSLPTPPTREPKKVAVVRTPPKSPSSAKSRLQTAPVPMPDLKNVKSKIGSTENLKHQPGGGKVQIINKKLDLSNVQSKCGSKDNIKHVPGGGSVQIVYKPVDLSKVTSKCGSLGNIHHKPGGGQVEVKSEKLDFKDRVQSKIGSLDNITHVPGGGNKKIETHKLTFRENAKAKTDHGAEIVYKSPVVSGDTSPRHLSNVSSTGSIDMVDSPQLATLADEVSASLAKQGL
T2 sequence (P10636 561-686 P618L): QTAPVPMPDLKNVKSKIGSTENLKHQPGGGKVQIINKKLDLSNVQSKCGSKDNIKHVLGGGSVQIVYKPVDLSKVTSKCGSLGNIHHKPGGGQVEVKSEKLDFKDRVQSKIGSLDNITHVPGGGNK
T3 sequence (P05067 672-713 limits assumed): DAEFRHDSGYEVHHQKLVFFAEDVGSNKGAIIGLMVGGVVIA

In the case of `Nc1scc2c(C(=O)NC3CC3)nn(-c3ccc(Cl)cc3)c(=O)c12` [CNDR-51362, 5-Amino-3-(4-chlorophenyl)-N-cyclopropyl-4-oxo-3,4-dihydrothieno[3,4-d]pyridazine-1-carboxamide], the “Tau40 Sed. Assay, maximal percent inhibition of tau40 fibrillization” value on full-length tau (tau40) was found to be 58%. Also, the Emax at full-length tau (tau40) was 50 to 60%; at K18PL tau, 69%. The Kp at 16 h in series [1] (mouse, brain and plasma, iv, over 16 h, six time points, FIG. 6A (i.v. 2 mg/Kg), read-out: Total brain-to-plasma (B/P) AUC exposure ratio) came out at 1.6. The half-life in series [1] (mouse, brain, iv, read-out: Elimination half-life in the brain (converted)) was about 9.5 h; in series [1] (mouse, plasma, iv, read-out: Elimination half-life in plasma (converted)) it was about 7.4 h. Also, the bioavailability in series [1] (mouse, plasma AUC after oral 5 mg/Kg versus i.v. 2 mg/Kg) is about 64%. The “Brain concentration after oral administration” value in series [1] (oral 5 mg/Kg, FIGS. 6B and 6C, 5 mg/kg) is “significant brain concentrations”.

In turn, `CCOC(=O)c1nn(-c2ccc(Cl)cc2)c(=O)c2c(N)scc12` [Compound 17, Ethyl 5-amino-3-(4-chlorophenyl)-4-oxo-3,4-dihydrothieno[3,4-d]pyridazine-1-carboxylate] came in with a melting point of 189 to 191 °C. Further, the inhibition at 80 µM at Aβ(1-42) is 41%. In addition, at full-length tau (tau40), the “Tau40 Sed. Assay, maximal percent inhibition of tau40 fibrillization” value was 48% and the Emax fell in the range of 50 to 60%. Further, the Emax on K18PL tau was determined as 70%. Moreover, the “Tau Cent. Assay % Soluble” value at K18PL tau (Table 3, K18PL tau centrifugation assay) is 62%.
